Assay [1] addresses T1, mMC4R (Mus musculus, UniProt P56450). Put plainly: cell-based.
For assay [2], the target named is T2, hMC4R (Homo sapiens, UniProt P32245). Put plainly: cAMP AlphaScreen bioassay, HEK293 cells stably expressing hMC4R. To be noted: for Observed Inverse Agonism?: hMC4R, cAMP; for hMC4R pA2: antagonist pA2, Schild analysis with agonist NDP-MSH, ± SEM, <5.0 = no antagonist potency up to 10,000 nM. It counts as cell-based. Details: expressed in transfected cells.
Assay [3] concerns the target T3, mMC1R (Mus musculus, UniProt Q01727). Put plainly: cAMP AlphaScreen bioassay, HEK293 cells stably expressing mMC1R. Particulars: Example 2; @ 100 μM; EC50 not determinable. For orientation: Alpha assays give light when donor and acceptor beads are brought close together.
Assay [4] concerns the target T4, mMC5R (Mus musculus, UniProt P41149). Also noted: expressed in transfected cells. To be noted: compounds 1 and 2, previously reported; cited from earlier work.
The target in assay [5] is T5, mMC3R (Mus musculus, UniProt P33033). Particulars: compounds 1 and 2, previously reported, cited from earlier work; for mMC3R pA2: antagonist.
T5 sequence (P33033 whole entry): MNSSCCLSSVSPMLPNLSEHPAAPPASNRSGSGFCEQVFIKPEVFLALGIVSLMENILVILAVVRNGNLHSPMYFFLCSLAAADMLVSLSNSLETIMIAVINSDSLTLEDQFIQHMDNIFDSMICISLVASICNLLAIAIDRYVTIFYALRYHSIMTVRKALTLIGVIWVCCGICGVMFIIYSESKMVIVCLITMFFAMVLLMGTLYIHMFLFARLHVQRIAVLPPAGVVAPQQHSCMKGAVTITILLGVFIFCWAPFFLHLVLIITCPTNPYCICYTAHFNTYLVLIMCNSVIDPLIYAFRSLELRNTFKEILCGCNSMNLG
Assay [6] addresses T4, mMC5R. Particulars: for mMC5R pA2: Example 1, antagonist, Schild analysis with NDP-MSH, ± SEM, reported herein for the first time.
Assay [7] has as its target T5, mMC3R. Particulars: for mMC3R pA2: antagonist, Schild analysis with NDP-MSH, ± SEM.
The target in assay [8] is T4, mMC5R. Put plainly: 125I-NDP-MSH competitive binding assay, transfected HEK293 cells, mMC5R. Particulars: binding IC50 versus control 1 (Asn) or 2 (Dap).
For assay [9], the target named is T3, mMC1R. Put plainly: 125I-NDP-MSH competitive binding assay, transfected HEK293 cells, mMC1R. Particulars: binding IC50 versus control 1 (Asn) or 2 (Dap).
The target of assay [10] is T1, mMC4R. Put plainly: 125I-NDP-MSH competitive binding assay, transfected HEK293 cells, mMC4R. Particulars: binding IC50 versus control 1 (Asn) or 2 (Dap).
The target in assay [11] is T5, mMC3R. Briefly: 125I-NDP-MSH competitive binding assay, transfected HEK293 cells, mMC3R. Particulars: binding IC50 versus control 1 (Asn) or 2 (Dap).
Assay [12] deals with T2, hMC4R. Briefly: 125I-NDP-MSH competitive binding assay, transfected HEK293 cells, hMC4R. Particulars: binding IC50 versus control 1 (Asn) or 2 (Dap).
Assay [13] has as its target T1, mMC4R. To be noted: Example 1; for mMC4R pA2: antagonist, Schild analysis with NDP-MSH, ± SEM, <5.0 = no antagonist potency up to 10,000 nM.
Assay [14] has as its target MC5R (Homo sapiens, UniProt P33032). Particulars: chemically synthetized AgRP ligands, Yang et al. 1999, cited from earlier work.
The mark [15] stands for this setting: Example 1, <5.0 = no antagonist potency up to 10,000 nM.

“And” between values parts separate entries of the source, which are not always exact repeats. Equal entries are not always repeated. Where two headings read alike, the source gives them in different places. Square brackets hold non-standard residues; d marks the D form. Peptide text beside a SMILES is read from it. Gly(N-(CH2)3-guanidino) = N=C(N)NCCCNCC(=O)O; Dap = NC[C@H](N)C(=O)O Bounds are passed on as bounds.

One may read the EC50 as the midpoint of the concentration-response curve. The IC50 is the point on the concentration scale where inhibition reaches its midpoint.

T3 sequence (Q01727 whole entry): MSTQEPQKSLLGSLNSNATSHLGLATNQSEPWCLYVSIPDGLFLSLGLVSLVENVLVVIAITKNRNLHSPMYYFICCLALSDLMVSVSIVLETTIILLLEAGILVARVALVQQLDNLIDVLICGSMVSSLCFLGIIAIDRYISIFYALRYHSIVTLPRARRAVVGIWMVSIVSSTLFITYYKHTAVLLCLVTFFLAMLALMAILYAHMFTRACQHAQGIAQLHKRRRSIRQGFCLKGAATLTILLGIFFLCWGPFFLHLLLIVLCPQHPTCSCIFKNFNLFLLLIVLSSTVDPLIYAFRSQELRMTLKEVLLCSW
T1 sequence (P56450 whole entry): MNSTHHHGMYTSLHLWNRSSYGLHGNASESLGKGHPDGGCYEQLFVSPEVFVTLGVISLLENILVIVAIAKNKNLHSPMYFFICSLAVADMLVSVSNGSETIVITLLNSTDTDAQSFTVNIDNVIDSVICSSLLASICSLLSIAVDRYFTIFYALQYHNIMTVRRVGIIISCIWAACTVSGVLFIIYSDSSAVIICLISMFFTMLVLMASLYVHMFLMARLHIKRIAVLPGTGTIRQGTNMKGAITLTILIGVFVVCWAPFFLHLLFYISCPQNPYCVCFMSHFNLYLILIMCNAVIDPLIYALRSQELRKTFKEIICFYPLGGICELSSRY
T2 sequence (P32245 whole entry): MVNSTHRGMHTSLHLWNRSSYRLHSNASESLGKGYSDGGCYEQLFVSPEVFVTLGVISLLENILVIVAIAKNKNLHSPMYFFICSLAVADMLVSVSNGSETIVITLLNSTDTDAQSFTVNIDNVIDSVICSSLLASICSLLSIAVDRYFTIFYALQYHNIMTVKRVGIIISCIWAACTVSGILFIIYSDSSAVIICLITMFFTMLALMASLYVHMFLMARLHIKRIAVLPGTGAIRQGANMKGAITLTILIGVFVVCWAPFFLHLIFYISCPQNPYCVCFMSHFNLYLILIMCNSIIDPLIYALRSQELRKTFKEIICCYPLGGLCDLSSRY
T4 sequence (P41149 whole entry): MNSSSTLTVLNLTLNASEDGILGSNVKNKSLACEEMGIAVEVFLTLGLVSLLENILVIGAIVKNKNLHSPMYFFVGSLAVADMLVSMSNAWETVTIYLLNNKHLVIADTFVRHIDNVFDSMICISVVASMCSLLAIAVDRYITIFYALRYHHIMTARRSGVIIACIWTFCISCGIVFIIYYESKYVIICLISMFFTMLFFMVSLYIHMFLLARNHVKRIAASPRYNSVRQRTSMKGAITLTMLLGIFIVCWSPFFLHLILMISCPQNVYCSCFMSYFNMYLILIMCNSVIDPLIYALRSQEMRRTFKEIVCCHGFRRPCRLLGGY
Sequence of MC5R (P33032 whole entry, species assumed): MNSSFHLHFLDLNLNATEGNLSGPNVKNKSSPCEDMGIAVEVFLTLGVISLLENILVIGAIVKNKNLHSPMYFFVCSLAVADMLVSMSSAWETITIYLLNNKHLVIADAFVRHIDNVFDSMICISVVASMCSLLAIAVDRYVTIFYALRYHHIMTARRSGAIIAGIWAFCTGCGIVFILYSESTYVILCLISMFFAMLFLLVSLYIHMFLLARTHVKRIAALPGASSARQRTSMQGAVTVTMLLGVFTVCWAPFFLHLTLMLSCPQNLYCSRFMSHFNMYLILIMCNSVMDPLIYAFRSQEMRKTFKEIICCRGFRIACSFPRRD

As to `C[C@@H]1NC(=O)[C@H](CN)NC(=O)[C@H](Cc2ccccc2)NC(=O)[C@H](Cc2ccccc2)NC(=O)CN(CCCNC(=N)N)C(=O)[C@@H]2CCCN2C(=O)[C@H]2CCCN2C(=O)[C@H](Cc2ccccc2)NC1=O` [MDE8-108-3c, c[Pro-NArg-Phe-Phe-Dap-Ala-Phe-DPro]] (cyclo([Gly(N-(CH2)3-guanidino)]FF[Dap]AF[dP]P)), in assay [1], the Kb is 3160 nM.
As for `C[C@@H]1NC(=O)[C@H](CN)NC(=O)[C@H](Cc2ccccc2)NC(=O)[C@H](Cc2ccccc2)NC(=O)[C@H](CCCNC(=N)N)NC(=O)[C@@H]2CCCN2C(=O)[C@H]2CCCN2C(=O)[C@H](Cc2ccccc2)NC1=O` [MDE 6-82-1c, c[Pro-Arg-Phe-Phe-Dap-Ala-Phe-DPro]], the “Observed Inverse Agonism?” value in assay [2] is given as “Yes”. The “mMC1R percent maximal stimulatory response” value in assay [3] worked out at 36% @. Besides, the “mMC5R inverse agonist, percent decrease from basal” value is given as −15% in assay [4] and −10% in assay [6] (Example 2, basal to plateau signal, sigmoidal dose-response). For the same compound, the “mMC5R pharmacology observed in agonist assay (Inverse Agonist)” value in [4] is “Inverse”. In assay [5] (agonist), the 50% effective concentration (EC50) was greater than 100000 nM. Besides, the “mMC3R pA2” value in [5] is 6.5 and 6.5 ± 0.09; in assay [5] (listed as MDE6-82-1c), 6.5-7.2; in [7] (Example 2, <5.5 = no antagonist potency up to 10,000 nM), 6.5; in [7] (Example 2, <5.5 = no antagonist potency up to 10,000 nM, listed as MDE6-82-1c) it was 6.5 ± 0.3. In addition, the “mMC5R pharmacology observed (Partial Agonist / Inverse Agonist)” value in assay [6] (Example 2) was “Inverse”. The “mMC3R percent maximal stimulatory response” value in [7] (Example 2, @ 100 μM) stood at 20% @.
As to `CC(C)[C@@H]1NC(=O)[C@H](CC(N)=O)NC(=O)[C@H](Cc2ccccc2)NC(=O)[C@H](Cc2ccccc2)NC(=O)[C@H](CCCNC(=N)N)NC(=O)[C@@H]2CCCN2C(=O)[C@H]2CCCN2C(=O)[C@H](Cc2ccccc2)NC1=O` [ZMK 2-82, c[Pro-Arg-Phe-Phe-Asn-Val-Phe-DPro]] (cyclo(PRFFNVF[dP])), in [2], the “hMC4R pA2” value was found to be 7.7 and the “Observed Inverse Agonism?” value is given as “Yes”. Further, in assay [2] (listed as AMK 2-82), the “hMC4R pA2” value was found to be 7.8 ± 0.03. Besides, the “mMC5R Fold Diff” value in [8] is given as 2. Moreover, the “mMC1R Fold Diff” value in assay [9] is 2. Also, in assay [10], the “mMC4R Fold Diff” value is 2. For the same compound, the “mMC3R Fold Diff” value in [11] was determined as 3. For the same compound, in assay [6], the “mMC5R pA2” value was 6.1 and 6.1 ± 0.09. Further, the “hMC4R Fold Diff” value in [12] is reported as 3. For the same compound, the “mMC3R pA2” value in assay [7] (setting [15]) is 5.9 and 5.9 ± 0.1. Moreover, the “mMC4R percent maximal stimulatory response” value in [13] (@ 100 μM, relative to NDP-MSH signal) is 16% @. Further, the “mMC4R pA2” value in [13] is 7.2 and 7.2 ± 0.1.
As for `C[C@@H]1NC(=O)[C@H](CN)NC(=O)[C@H](Cc2ccccc2)NC(=O)[C@H](Cc2ccccc2)NC(=O)[C@H](Cc2c[nH]cn2)NC(=O)[C@@H]2CCCN2C(=O)[C@H]2CCCN2C(=O)[C@H](Cc2ccccc2)NC1=O` [ZMK 2-99, c[Pro-His-Phe-Phe-Dap-Ala-Phe-DPro]] (cyclo(PHFF[Dap]AF[dP])), in assay [2], the “hMC4R pA2” value is 6.4 and 6.4 ± 0.09; the “Observed Inverse Agonism?” value is reported as “No”. Also, the “mMC5R Fold Diff” value in assay [8] turned out to be 7. Further, the “mMC1R Fold Diff” value in [9] turned out to be 5. Moreover, in [10], the “mMC4R Fold Diff” value was found to be 500. In assay [11], the “mMC3R Fold Diff” value came to 5. In addition, the “hMC4R Fold Diff” value in assay [12] was 400. Moreover, the “mMC3R pA2” value in assay [7] (setting [15]) is 5.4 and 5.4 ± 0.1. Moreover, in [13], the “mMC4R pA2” value was 6.0 and 6.0 ± 0.1.
Take `C[C@@H]1NC(=O)[C@H](CN)NC(=O)[C@H](Cc2ccccc2)NC(=O)[C@H](Cc2ccc(O)cc2)NC(=O)[C@H](CCCNC(=N)N)NC(=O)[C@@H]2CCCN2C(=O)[C@H]2CCCN2C(=O)[C@H](Cc2ccccc2)NC1=O` [ZMK 2-112, c[Pro-Arg-Tyr-Phe-Dap-Ala-Phe-DPro]] (cyclo(PRYF[Dap]AF[dP])): in [2], the “hMC4R pA2” value is 7.5 and 7.5 ± 0.2; the “Observed Inverse Agonism?” value is recorded as “Yes”. Also, the “mMC5R Fold Diff” value in [8] is on record as 20. The “mMC1R Fold Diff” value in assay [9] is on record as 4. In assay [10], the “mMC4R Fold Diff” value came out at 70. In assay [11], the “mMC3R Fold Diff” value stood at 9. Moreover, the “mMC5R pA2” value in assay [6] is 6.5 and 6.5 ± 0.2. In addition, in [12], the “hMC4R Fold Diff” value stood at 100. Moreover, in [7] (setting [15]), the “mMC3R pA2” value was 6.5 and 6.5 ± 0.1. Besides, the “mMC4R pA2” value in [13] is 7.3 and 7.3 ± 0.1.
As for “AgRP: agouti-related protein, endogenous MC3R and MC4R antagonist and MC4R inverse agonist”, the “Observed Inverse Agonism?” value in [2] is “Yes”. In addition, the concentration for half-maximal inhibition (IC50) was 310 nM in assay [14] (read-out: IC50, displacement of radiolabeled NDP-MSH at the MC5R) and 26 nM in assay [14] (read-out: IC50, displacement of radiolabeled AgRP at the MC5R).

The values are drawn from patent US20210179666A1, “CYCLIC PEPTIDES AND METHODS OF USE THEREOF” (Regents of the University of Minnesota, priority 2019, published 2021).
